Assay results reported in patent US20070015810A1, “5(R)-Substituted Pyrazoline Compounds, their Preparation and Use as Medicaments” (LABORATORIOS DEL DR. ESTEVE, S.A., priority 2005, published 2007).
Counter-ions that a name gives are not always drawn.

What was measured:
CB1-receptor = CB1-receptor (UniProt P20272); test: In-vitro determination of affinity (binding) to the CB1-receptor, radioligand [3H]-CP55940; conditions: Pharmacological methods part I
Source text: 1. In-vitro determination of affinity to CB1CB2-Receptors
The in-vitro determination of the affinity of the inventive substituted pyrazoline compounds to CB1/CB2-Rezeptors is carded out as described in the publication of Ruth A. Ross, Heather C. Brockie et al., “Agonist-inverse agonist characterization at CB1 and CB2 cannabinoid receptors of L-759633, L759656 and AM630”, British Journal of Pharmacology, 126, 665-672, (1999), whereby the transfected human CB1 and CB2 receptors of Receptor Biology, Inc. are used. The radioligand used for both receptors is [^3H]-CP55940. The respective parts of the description is hereby incorporated by reference and forms part of the present disclosure. […]
Binding affinity to CB1 receptor was evaluated according to a modification of the method described by Govaerts et al., Eur J Pharmac Sci 23, 233-243 (2004). […]
Briefly, cerebellum from male wistar rats (250-300 g) were carefully dissected on ice and homogenates were prepared with Potter-Helveheim in a cold 50 mM Tris-HCl solution containing 5 mM MgCl2, 1 mM EDTA and 0.25 M sucrose, pH 7.4. […] Total protein concentration was determined using the Bio-Rad Lowry method based kit. […] Compounds were present at various concentrations and the non specific binding was determined in the presence of 10 μM HU-210. […]
Binding data were analyzed by non-linear regression with the software GraphPad Prism Version 3.03. […]

[1] = Chronic administration in animals made obese by a simplified cafeteria diet; type: in vivo, rats
[2] = molecular target: T1, recombinant human cannabinoid 1 receptor (CB1) (Homo sapiens, UniProt P21554); test: [35S]GTPγS binding assay, antagonism to CB1-receptor in CHO cell membranes; type: biochemical; conditions: compound 1 μM versus agonist WIN 55,212-2; 100% = difference between maximal WIN 55,212-2 effect alone and with Rimonabant (1 μM)
T1 construct: expressed in transfected cells; membrane preparation
Experimental: VI. In Vitro Determination of Antagonism to CB1-Receptor
Chinese hamster ovary (CHO) cells stably expressing recombinant human cannabinoid 1 receptor (CB1) were cultured in nutrient mixture Ham's F 12 supplemented with 10% heat-inactivated fetal bovine serum, 2 mM L-glutamine, 50 U/ml penicillin, 50 U/ml streptomycin and 0.5 mg/ml geneticin. In order to obtain cells, culture flasks were washed twice with phosphate buffered saline and scraped. Then, cells were collected by centrifugation (200×g, 10 min) and stored dry at −80° C. Cells were homogenized in ice-cold 20 mM HEPES, 10 mM EDTA (pH 7.5) and centrifuged at 40,000×g for 15 min at 4° C. The membrane pellet was resuspended in 20 mM HEPES, 0.1 mM EDTA (pH 7.5) and centrifuged for 15 min at 4° C. The final membrane pellet was resuspended in 20 mM HEPES, 0.1 mM EDTA (pH 7.5), and divided in aliquots and stored at −80° C. until use.
The reaction was performed in 96-well plates. […] Radioactivity was determined using a Wallac Microbeta Trilux. […]
The antagonism of the pyrazoline compounds of general formula I to the CB1-receptor was determined according to the method described in Pharmacological methods, part VI (table 2).

[3] = Effect of continued administration on body weight in rats; type: in vivo; conditions: 10 mg/kg i.p. once daily
Experimental: V. Determination of the Effect of Continued Administration of the Inventive Compounds on Body Weight in Rats
The weight of the animals was measured for 36 days, and the data grouped into 3 periods for analysis. Period 1, days 1-8 (period for adaptation of the animals to the environmental conditions: one week without treatment plus first day of treatment); Period 2, days 9-22 (treatment period: two weeks); Period 3, days 23-36 (escape treatment period: two weeks). The administration of the drugs started on day 8, immediately after the animal was weighted, and finished on day 21. The treatment period ranges between one day after first administration and one day after last administration. The drugs were administered i.p. once daily. For comparative purposes, absolute weights were transformed into relative percentages (each weight was divided by that of day 8 and multiplied by 100). […] All results are expressed as mean±S.E.M.
The dependence of body-weight (expressed as a percentage relative to day 8) on time (number of days after inclusion in the study) and treatment was assessed by a two-way (time, treatment) analysis of variance (ANOVA) with repeated measures on the time factor. […] The differences between pairs of curves (treatments) were analyzed using appropriate contrasts within the ANOVA test. […]

T1 sequence (P21554 whole entry): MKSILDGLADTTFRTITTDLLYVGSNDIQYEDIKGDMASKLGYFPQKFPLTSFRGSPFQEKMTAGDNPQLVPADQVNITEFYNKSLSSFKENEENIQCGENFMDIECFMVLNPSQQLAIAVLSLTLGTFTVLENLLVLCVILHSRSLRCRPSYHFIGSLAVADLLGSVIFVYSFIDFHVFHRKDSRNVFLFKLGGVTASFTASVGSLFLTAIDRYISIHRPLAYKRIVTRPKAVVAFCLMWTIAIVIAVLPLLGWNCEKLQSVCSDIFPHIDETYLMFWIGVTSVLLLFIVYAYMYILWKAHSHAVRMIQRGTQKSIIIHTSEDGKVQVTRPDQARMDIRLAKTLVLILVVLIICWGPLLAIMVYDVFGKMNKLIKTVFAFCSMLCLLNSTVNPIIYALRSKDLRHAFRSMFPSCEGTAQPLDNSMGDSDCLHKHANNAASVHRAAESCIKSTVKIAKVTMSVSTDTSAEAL

Row | Structure (SMILES) | IC50 (CB1-receptor) [nM] | body weight on chronic administration ([1]; animals made obese by cafeteria diet (high-fat diet, chocolate, ground peanuts)) | body weight after 28 days of drug treatment versus vehicle-treated controls ([1]; obese rats, 28 days of treatment) | Antagonism [%] [2] [%] | effect on body weight ([3]; days 8-21, FIG. 1) | recovery of weight after treatment ([3]; escape period days 23-36, FIG. 1)
1 | O=C(NN1CCCCC1)C1=NN(c2ccc(Cl)cc2Cl)[C@@H](c2ccc(Cl)cc2)C1 [A, (R)-N-piperidinyl-5-(4chlorophenyl)-1-(2,4-dichlorophenyl)-4,5-dihydro-1H-pyrazole-3-carboxamide] | 16.1 | significantly decreased body weight | lower than those of the vehicle-treated controls | 106 | stronger action than the racemate | slower recovery of weight
2 | O=C(NN1CCCCC1)C1=NN(c2ccc(Cl)cc2Cl)[C@@H](c2ccc(Cl)cc2)C1 [A-Hydrochloride] | 20 | – | – | 113 | – | –
